Test results published in US6414170B1, “Preparation of cationic surfactants containing ester group in molecules” (LG Chemical Ltd., priority 1998, dated 2002).

Experiment: OECD 301D Closed Bottle Test (evaluation of ultimate biodegradability)
Conditions: 60% or more biodegraded two weeks from start of decomposition, test period of 28 days
Source text: Measuring of the ultimate biodegradability was made by taking an OECD 301D Closed Bottle Test (a test for determining whether or not 60% or more can be biodegraded two weeks from the time when the sample begins decomposing during the test period of 28 days) on cationic surfactants prepared in EXAMPLES 1 to 8, dimethyl dialkyl ammonium chloride, and imidazoline ester. The ultimate biodegradabilities of cationic surfactants of EXAMPLE 1, 2, 8, and conventional cationic surfactants were less than 60%, thereby not being readily biodegradable.

## dimethyl dialkyl ammonium chloride
  Readily biodegradable: No
